Data reported in PubChem BioAssay (NCI).
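All cell lines were grown in 96-well plates and treated with compound for 48 hours. The concentration for 50% growth inhibition is given as GI50. The concentration for full growth arrest is given as TGI.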

Legend:
Experiment in all cases: NCI anticancer screen, dose series, 48 h
786-0 renal = tested on: 786-0 renal
A498 renal = tested on: A498 renal
A549 NSCLC = tested on: A549 NSCLC
ACHN renal = tested on: ACHN renal
BT-549 breast = tested on: BT-549 breast
CAKI-1 renal = tested on: CAKI-1 renal
CCRF-CEM leukemia = tested on: CCRF-CEM leukemia
COLO 205 colon = tested on: COLO 205 colon
DU-145 prostate = tested on: DU-145 prostate
EKVX NSCLC = tested on: EKVX NSCLC
HCC-2998 colon = tested on: HCC-2998 colon
HCT-116 colon = tested on: HCT-116 colon
HCT-15 colon = tested on: HCT-15 colon
HL-60(TB) leukemia = tested on: HL-60(TB) leukemia
HOP-62 NSCLC = tested on: HOP-62 NSCLC
HOP-92 NSCLC = tested on: HOP-92 NSCLC
HS 578T breast = tested on: HS 578T breast
HT29 colon = tested on: HT29 colon
IGROV1 ovarian = tested on: IGROV1 ovarian
K-562 leukemia = tested on: K-562 leukemia
KM12 colon = tested on: KM12 colon
LOX IMVI melanoma = tested on: LOX IMVI melanoma
M14 melanoma = tested on: M14 melanoma
MALME-3M melanoma = tested on: MALME-3M melanoma
MCF7 breast = tested on: MCF7 breast
MDA-MB-231 breast = tested on: MDA-MB-231 breast
MDA-MB-435 = tested on: MDA-MB-435
MOLT-4 leukemia = tested on: MOLT-4 leukemia
NCI-H226 lung = tested on: NCI-H226 lung
NCI-H23 lung = tested on: NCI-H23 lung
NCI-H460 lung = tested on: NCI-H460 lung
NCI-H522 lung = tested on: NCI-H522 lung
NCI/ADR-RES ovarian = tested on: NCI/ADR-RES ovarian
OVCAR-4 ovarian = tested on: OVCAR-4 ovarian
OVCAR-5 ovarian = tested on: OVCAR-5 ovarian
OVCAR-8 ovarian = tested on: OVCAR-8 ovarian
PC-3 prostate = tested on: PC-3 prostate
RPMI-8226 leukemia = tested on: RPMI-8226 leukemia
RXF 393 renal = tested on: RXF 393 renal
SF-268 CNS = tested on: SF-268 CNS
SF-295 CNS = tested on: SF-295 CNS
SF-539 CNS = tested on: SF-539 CNS
SK-MEL-2 melanoma = tested on: SK-MEL-2 melanoma
SK-MEL-28 melanoma = tested on: SK-MEL-28 melanoma
SK-MEL-5 melanoma = tested on: SK-MEL-5 melanoma
SK-OV-3 ovarian = tested on: SK-OV-3 ovarian
SN12C renal = tested on: SN12C renal
SNB-19 CNS = tested on: SNB-19 CNS
SNB-75 CNS = tested on: SNB-75 CNS
SR leukemia = tested on: SR leukemia
SW-620 colon = tested on: SW-620 colon
T-47D breast = tested on: T-47D breast
TK-10 renal = tested on: TK-10 renal
U251 CNS = tested on: U251 CNS
UACC-257 melanoma = tested on: UACC-257 melanoma
UACC-62 melanoma = tested on: UACC-62 melanoma
UO-31 renal = tested on: UO-31 renal

Question: `CCCC(=O)NC(c1cccnc1)c1ccc2c(C)ccnc2c1O` (centres undefined) was tested. Which GI50 (786-0 renal) did it give?
Answer: 2.08 µM

Question: And the TGI (786-0 renal)?
Answer: > 100 µM

Question: What about the GI50 (A498 renal) of the same compound?
Answer: 2.36 µM

Question: And the TGI (A498 renal)?
Answer: 16.8 µM

Question: And the GI50 (A549 NSCLC)?
Answer: 2.15 µM

Question: And the TGI (A549 NSCLC)?
Answer: > 100 µM

Question: What about the GI50 (ACHN renal) of the same compound?
Answer: 0.651 µM

Question: What about the TGI (ACHN renal) of the same compound?
Answer: > 100 µM

Question: What about the GI50 (BT-549 breast) of the same compound?
Answer: 3.93 µM

Question: And the TGI (BT-549 breast)?
Answer: > 100 µM

Question: What about the GI50 (CAKI-1 renal) of the same compound?
Answer: 1.03 µM

Question: And the TGI (CAKI-1 renal)?
Answer: > 100 µM

Question: What about the GI50 (CCRF-CEM leukemia) of the same compound?
Answer: 0.568 µM

Question: What about the TGI (CCRF-CEM leukemia) of the same compound?
Answer: > 100 µM

Question: And the GI50 (COLO 205 colon)?
Answer: 1.27 µM

Question: And the TGI (COLO 205 colon)?
Answer: > 100 µM

Question: And the GI50 (DU-145 prostate)?
Answer: 1.7 µM

Question: And the TGI (DU-145 prostate)?
Answer: > 100 µM

Question: And the GI50 (EKVX NSCLC)?
Answer: 0.892 µM

Question: And the TGI (EKVX NSCLC)?
Answer: 20.2 µM

Question: And the GI50 (HCC-2998 colon)?
Answer: 2.68 µM

Question: And the TGI (HCC-2998 colon)?
Answer: > 100 µM

Question: And the GI50 (HCT-116 colon)?
Answer: 0.538 µM

Question: What about the TGI (HCT-116 colon) of the same compound?
Answer: > 100 µM

Question: And the GI50 (HCT-15 colon)?
Answer: 0.539 µM

Question: And the TGI (HCT-15 colon)?
Answer: > 100 µM

Question: And the GI50 (HL-60(TB) leukemia)?
Answer: 0.591 µM

Question: What about the TGI (HL-60(TB) leukemia) of the same compound?
Answer: 5.85 µM

Question: And the GI50 (HOP-62 NSCLC)?
Answer: 1.5 µM

Question: And the TGI (HOP-62 NSCLC)?
Answer: > 100 µM

Question: What about the GI50 (HOP-92 NSCLC) of the same compound?
Answer: 6.1 µM

Question: What about the TGI (HOP-92 NSCLC) of the same compound?
Answer: > 100 µM

Question: What about the GI50 (HS 578T breast) of the same compound?
Answer: 8.72 µM

Question: What about the TGI (HS 578T breast) of the same compound?
Answer: > 100 µM

Question: What about the GI50 (HT29 colon) of the same compound?
Answer: 2.21 µM

Question: And the TGI (HT29 colon)?
Answer: > 100 µM

Question: And the GI50 (IGROV1 ovarian)?
Answer: 1.87 µM

Question: What about the TGI (IGROV1 ovarian) of the same compound?
Answer: > 100 µM

Question: And the GI50 (K-562 leukemia)?
Answer: 0.851 µM

Question: What about the TGI (K-562 leukemia) of the same compound?
Answer: > 100 µM

Question: What about the GI50 (KM12 colon) of the same compound?
Answer: 2.28 µM

Question: What about the TGI (KM12 colon) of the same compound?
Answer: > 100 µM

Question: And the GI50 (LOX IMVI melanoma)?
Answer: 0.697 µM

Question: And the TGI (LOX IMVI melanoma)?
Answer: 11.7 µM

Question: And the GI50 (M14 melanoma)?
Answer: 1.16 µM

Question: What about the TGI (M14 melanoma) of the same compound?
Answer: > 100 µM

Question: What about the GI50 (MALME-3M melanoma) of the same compound?
Answer: 2.18 µM

Question: And the TGI (MALME-3M melanoma)?
Answer: > 100 µM

Question: What about the GI50 (MCF7 breast) of the same compound?
Answer: 1.91 µM

Question: And the TGI (MCF7 breast)?
Answer: > 100 µM

Question: And the GI50 (MDA-MB-231 breast)?
Answer: 2.23 µM

Question: And the TGI (MDA-MB-231 breast)?
Answer: > 100 µM

Question: And the GI50 (MDA-MB-435)?
Answer: 2.89 µM

Question: And the TGI (MDA-MB-435)?
Answer: > 100 µM

Question: And the GI50 (MOLT-4 leukemia)?
Answer: 0.549 µM

Question: What about the TGI (MOLT-4 leukemia) of the same compound?
Answer: > 100 µM

Question: And the GI50 (NCI-H226 lung)?
Answer: 2.75 µM

Question: And the TGI (NCI-H226 lung)?
Answer: > 100 µM

Question: And the GI50 (NCI-H23 lung)?
Answer: 2.54 µM

Question: And the TGI (NCI-H23 lung)?
Answer: > 100 µM

Question: And the GI50 (NCI-H460 lung)?
Answer: 0.576 µM

Question: What about the TGI (NCI-H460 lung) of the same compound?
Answer: > 100 µM

Question: What about the GI50 (NCI-H522 lung) of the same compound?
Answer: 2.17 µM

Question: And the TGI (NCI-H522 lung)?
Answer: > 100 µM

Question: What about the GI50 (NCI/ADR-RES ovarian) of the same compound?
Answer: 0.442 µM

Question: And the TGI (NCI/ADR-RES ovarian)?
Answer: 77.5 µM

Question: What about the GI50 (OVCAR-4 ovarian) of the same compound?
Answer: 0.995 µM

Question: What about the TGI (OVCAR-4 ovarian) of the same compound?
Answer: > 100 µM

Question: What about the GI50 (OVCAR-5 ovarian) of the same compound?
Answer: 2.87 µM

Question: And the TGI (OVCAR-5 ovarian)?
Answer: > 100 µM

Question: What about the GI50 (OVCAR-8 ovarian) of the same compound?
Answer: 1.86 µM

Question: What about the TGI (OVCAR-8 ovarian) of the same compound?
Answer: > 100 µM

Question: And the GI50 (PC-3 prostate)?
Answer: 2.54 µM

Question: And the TGI (PC-3 prostate)?
Answer: > 100 µM

Question: And the GI50 (RPMI-8226 leukemia)?
Answer: 1.88 µM

Question: And the TGI (RPMI-8226 leukemia)?
Answer: > 100 µM

Question: And the GI50 (RXF 393 renal)?
Answer: 2.79 µM

Question: And the TGI (RXF 393 renal)?
Answer: > 100 µM

Question: And the GI50 (SF-268 CNS)?
Answer: 1.81 µM

Question: And the TGI (SF-268 CNS)?
Answer: > 100 µM

Question: And the GI50 (SF-295 CNS)?
Answer: 0.93 µM

Question: And the TGI (SF-295 CNS)?
Answer: > 100 µM

Question: What about the GI50 (SF-539 CNS) of the same compound?
Answer: 1.74 µM

Question: What about the TGI (SF-539 CNS) of the same compound?
Answer: > 100 µM

Question: What about the GI50 (SK-MEL-2 melanoma) of the same compound?
Answer: 7.09 µM

Question: What about the TGI (SK-MEL-2 melanoma) of the same compound?
Answer: > 100 µM

Question: And the GI50 (SK-MEL-28 melanoma)?
Answer: 2.3 µM

Question: And the TGI (SK-MEL-28 melanoma)?
Answer: > 100 µM

Question: What about the GI50 (SK-MEL-5 melanoma) of the same compound?
Answer: 1.69 µM

Question: And the TGI (SK-MEL-5 melanoma)?
Answer: 3.65 µM

Question: And the GI50 (SK-OV-3 ovarian)?
Answer: 2.1 µM

Question: And the TGI (SK-OV-3 ovarian)?
Answer: > 100 µM

Question: What about the GI50 (SN12C renal) of the same compound?
Answer: 2.37 µM

Question: And the TGI (SN12C renal)?
Answer: > 100 µM

Question: What about the GI50 (SNB-19 CNS) of the same compound?
Answer: 3.42 µM

Question: And the TGI (SNB-19 CNS)?
Answer: > 100 µM

Question: What about the GI50 (SNB-75 CNS) of the same compound?
Answer: 3.13 µM

Question: And the TGI (SNB-75 CNS)?
Answer: > 100 µM

Question: What about the GI50 (SR leukemia) of the same compound?
Answer: 0.472 µM

Question: And the TGI (SR leukemia)?
Answer: > 100 µM

Question: What about the GI50 (SW-620 colon) of the same compound?
Answer: 1.94 µM

Question: What about the TGI (SW-620 colon) of the same compound?
Answer: > 100 µM

Question: And the GI50 (T-47D breast)?
Answer: 1.29 µM

Question: And the TGI (T-47D breast)?
Answer: > 100 µM

Question: What about the GI50 (TK-10 renal) of the same compound?
Answer: 3.13 µM

Question: And the TGI (TK-10 renal)?
Answer: > 100 µM

Question: And the GI50 (U251 CNS)?
Answer: 1.6 µM

Question: What about the TGI (U251 CNS) of the same compound?
Answer: > 100 µM

Question: What about the GI50 (UACC-257 melanoma) of the same compound?
Answer: 2.46 µM

Question: What about the TGI (UACC-257 melanoma) of the same compound?
Answer: > 100 µM

Question: What about the GI50 (UACC-62 melanoma) of the same compound?
Answer: 2.11 µM

Question: And the TGI (UACC-62 melanoma)?
Answer: 20.4 µM

Question: What about the GI50 (UO-31 renal) of the same compound?
Answer: 0.548 µM

Question: What about the TGI (UO-31 renal) of the same compound?
Answer: 41.3 µM
